Data: patent US20060069132A1, “Azolecarboxamide herbicides” (priority 2004, published 2006)

Tests used:
[1] = system: barnyardgrass; assay: Test A pre-/postemergence herbicide test; type: in vivo, Echinochloa crus-galli
Summary of the method: (§1)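 Both application timings were run together: directed soil spray over freshly planted seeds in sandy loam, and runoff spray onto 2–10 cm seedlings. Evaluation after ~10 days in greenhouse used a 0–100 visual scale versus untreated controls.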

[2] = system: large crabgrass; assay: Test A pre-/postemergence herbicide test; type: in vivo, Digitaria sanguinalis
Summary of the method: as §1

[3] = system: giant foxtail; assay: Test A pre-/postemergence herbicide test; type: in vivo, Setaria faberi
Summary of the method: as §1

[4] = system: morningglory; assay: Test A pre-/postemergence herbicide test; type: in vivo, Ipomoea spp.
Summary of the method: as §1

[5] = system: redroot pigweed; assay: Test A pre-/postemergence herbicide test; type: in vivo, Amaranthus retroflexus
Summary of the method: as §1

[6] = system: velvetleaf; assay: Test A pre-/postemergence herbicide test; type: in vivo, Abutilon theophrasti
Summary of the method: as §1

[7] = system: barnyardgrass; assay: Test B pre-/postemergence herbicide test; type: in vivo, Echinochloa crus-galli; conditions: for Plant response rating, Barnyardgrass: preemergence; for Barnyardgrass plant response rating: postemergence, visual rating, scale 0 (no effect) to 100 (complete control)
Summary of the method: (§2)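 Plants compared with untreated controls 13–15 days post-treatment and given a visual 0–100 injury score. Applications: preemergence to seeds; postemergence at 1- to 4-leaf (2–18 cm); paddy species flooded, 2-leaf stage. Vehicle non-phytotoxic, surfactant included.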

[8] = system: Surinam grass; assay: Test B pre-/postemergence herbicide test; type: in vivo, Urochloa decumbens; conditions: for Plant response rating, Surinam Grass: preemergence; for Surinam Grass plant response rating: postemergence, visual rating, scale 0 (no effect) to 100 (complete control)
Summary of the method: (§3)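 Formulation: non-phytotoxic solvent mix with surfactant. Timing: preemergence on seed and postemergence on 2–18 cm plants, applied concurrently. Readout after 13–15 d greenhouse: visual 0–100 control rating against controls.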

[9] = system: cocklebur; assay: Test B pre-/postemergence herbicide test; type: in vivo, Xanthium strumarium; conditions: for Plant response rating, Cocklebur: preemergence; for Cocklebur plant response rating: postemergence, visual rating, scale 0 (no effect) to 100 (complete control)
Summary of the method: as §2

[10] = system: corn; assay: Test B pre-/postemergence herbicide test; type: in vivo, Zea mays; conditions: for Plant response rating, Corn: preemergence; for Corn plant response rating: postemergence, visual rating, scale 0 (no effect) to 100 (complete control)
Summary of the method: as §3

[11] = system: large crabgrass; assay: Test B pre-/postemergence herbicide test; type: in vivo, Digitaria sanguinalis; conditions: for Plant response rating, Crabgrass, Large: preemergence; for Crabgrass, Large plant response rating: postemergence, visual rating, scale 0 (no effect) to 100 (complete control)
Summary of the method: as §3

[12] = system: giant foxtail; assay: Test B pre-/postemergence herbicide test; type: in vivo, Setaria faberi; conditions: for Plant response rating, Foxtail, Giant: preemergence; for Foxtail, Giant plant response rating: postemergence, visual rating, scale 0 (no effect) to 100 (complete control)
Summary of the method: as §3

[13] = system: lambsquarters; assay: Test B pre-/postemergence herbicide test; type: in vivo, Chenopodium album; conditions: for Plant response rating, Lambsquarters: preemergence; for Lambsquarters plant response rating: postemergence, visual rating, scale 0 (no effect) to 100 (complete control)
Summary of the method: as §3

[14] = system: morningglory; assay: Test B pre-/postemergence herbicide test; type: in vivo, Ipomoea coccinea; conditions: for Plant response rating, Morningglory: preemergence; for Morningglory plant response rating: postemergence, visual rating, scale 0 (no effect) to 100 (complete control)
Summary of the method: as §2

[15] = system: pigweed; assay: Test B pre-/postemergence herbicide test; type: in vivo, Amaranthus retroflexus; conditions: for Plant response rating, Pigweed: preemergence; for Pigweed plant response rating: postemergence, visual rating, scale 0 (no effect) to 100 (complete control)
Summary of the method: as §3

[16] = system: rice; assay: Test B pre-/postemergence herbicide test; type: in vivo, Oryza sativa; conditions: preemergence
Summary of the method: as §3

[17] = system: velvetleaf; assay: Test B pre-/postemergence herbicide test; type: in vivo, Abutilon theophrasti; conditions: for Plant response rating, Velvetleaf: preemergence; for Velvetleaf plant response rating: postemergence, visual rating, scale 0 (no effect) to 100 (complete control)
Summary of the method: as §3

[18] = system: blackgrass; assay: Test B postemergence herbicide test; type: in vivo, Alopecurus myosuroides; conditions: postemergence, visual rating, scale 0 (no effect) to 100 (complete control)
Summary of the method: (§4)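 Formulated test chemicals went onto postemergence plants measuring 2 to 18 cm, at one to four leaves. For the paddy assay, species had reached two leaves. Scoring took place 13–15 days later by eye, relative to untreated plants, using 0 for no effect up to 100 for full control.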

[19] = system: wheat; assay: Test B postemergence herbicide test; type: in vivo, Triticum aestivum; set-up: key to Wheat plant response rating: 0 = no effect, 100 = complete control; conditions: postemergence, 500 g ai/ha; visual rating, scale 0 (no effect) to 100 (complete control)
Summary of the method: as §4

[20] = system: wild oat; assay: Test B postemergence herbicide test; type: in vivo, Avena fatua; conditions: postemergence, visual rating, scale 0 (no effect) to 100 (complete control)
Summary of the method: as §4

[21] = system: rice; assay: Test B flooded paddy test; type: in vivo, Oryza sativa; conditions: 1000 g ai/ha, visual rating, scale 0 to 100 (0 no effect, 100 complete control), 13 to 15 days
Summary of the method: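 Scale 0–100: zero equals no visible effect, 100 complete control, judged by eye relative to controls. Timing: 13 to 15 days in greenhouse post-treatment. Growth stage at spraying: two leaves (paddy) or one to four leaves, 2–18 cm (postemergence).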

[22] = system: small flower umbrella sedge; assay: Test B flooded paddy test; type: in vivo, Cyperus difformis; conditions: 1000 g ai/ha, visual rating, scale 0 to 100 (0 no effect, 100 complete control), 13 to 15 days
Summary of the method: as §4

[23] = system: ducksalad; assay: Test B flooded paddy test; type: in vivo, Heteranthera limosa; conditions: 1000 g ai/ha, visual rating, scale 0 to 100 (0 no effect, 100 complete control), 13 to 15 days
Summary of the method: as §4

[24] = system: barnyardgrass; assay: Test B flooded paddy test; type: in vivo, Echinochloa crus-galli; conditions: 1000 g ai/ha, visual rating, scale 0 to 100 (0 no effect, 100 complete control), 13 to 15 days
Summary of the method: as §4

[25] = Postemergence, 500 g ai/ha, 0 to 100 scale, 0 no effect, 100 complete control
[26] = Postemergence, 2000 g ai/ha, 0 to 100 scale, 0 no effect, 100 complete control
[27] = Preemergence, 500 g ai/ha, visual rating, 0 to 100 scale (0 no effect, 100 complete control)
[28] = Preemergence, 2000 g ai/ha, visual rating, 0 to 100 scale (0 no effect, 100 complete control)
[29] = preemergence, 500 g ai/ha, visual injury, 0 to 100 scale (0 no effect, 100 complete control)
[30] = 500 g ai/ha, visual rating 0-100, 0 no effect, 100 complete control
[31] = 125 g ai/ha, 0 to 100 scale, 0 is no effect, 100 is complete control

CCNC(=O)c1cc(C)cc(NC(=O)c2cc(C(C)(C)C)nn2CC)n1 [Compound 150]
Barnyardgrass plant response rating [1, 25]: 30 | Plant response rating, Barnyardgrass [1, 26]: 65 | Barnyardgrass plant response rating [1, 27]: 50 | Barnyardgrass plant response rating [1, 28]: 80 | Crabgrass, Large plant response rating [2, 25]: 15 | Plant response rating, Crabgrass, Large [2, 26]: 50 | Crabgrass, Large plant response rating [2, 27]: 25 | Crabgrass, Large plant response rating [2, 28]: 50 | Foxtail, Giant plant response rating [3, 25]: 20 | Plant response rating, Foxtail, Giant [3, 26]: 25 | Foxtail, Giant plant response rating [3, 27]: 15 | Foxtail, Giant plant response rating [3, 28]: 55 | Morningglory plant response rating [4, 25]: 0 | Plant response rating, Morningglory [4, 26]: 10 | Morningglory plant response rating [4, 27]: 10 | Morningglory plant response rating [4, 28]: 35 | Pigweed plant response rating [5, 25]: 80 | Plant response rating, Pigweed [5, 26]: 75 | Pigweed plant response rating [5, 28]: 100 | Pigweed plant response rating [5, 29]: 75 | Velvetleaf plant response rating [6, 25]: 25 | Plant response rating, Velvetleaf [6, 26]: 15 | Velvetleaf plant response rating [6, 28]: 50 | Velvetleaf plant response rating [6, 29]: 20 | Plant response rating, Barnyardgrass [7, 30]: 80 | Barnyardgrass plant response rating ([7]; 125 g ai/ha): 10 | Barnyardgrass plant response rating ([7]; 500 g ai/ha): 50 | Plant response rating, Barnyardgrass [7, 31]: 30 | Plant response rating, Surinam Grass [8, 30]: 10 | Surinam Grass plant response rating ([8]; 125 g ai/ha): 10 | Surinam Grass plant response rating ([8]; 500 g ai/ha): 40 | Plant response rating, Surinam Grass [8, 31]: 10 | Plant response rating, Cocklebur [9, 30]: 0 | Cocklebur plant response rating ([9]; 125 g ai/ha): 60 | Cocklebur plant response rating ([9]; 500 g ai/ha): 80 | Plant response rating, Cocklebur [9, 31]: 0 | Plant response rating, Corn [10, 30]: 20 | Corn plant response rating ([10]; 125 g ai/ha): 10 | Corn plant response rating ([10]; 500 g ai/ha): 50 | Plant response rating, Corn [10, 31]: 0 | Plant response rating, Crabgrass, Large [11, 30]: 10 | Crabgrass, Large plant response rating ([11]; 125 g ai/ha): 10 | Crabgrass, Large plant response rating ([11]; 500 g ai/ha): 10 | Plant response rating, Crabgrass, Large [11, 31]: 0 | Plant response rating, Foxtail, Giant [12, 30]: 60 | Foxtail, Giant plant response rating ([12]; 125 g ai/ha): 0 | Foxtail, Giant plant response rating ([12]; 500 g ai/ha): 10 | Plant response rating, Foxtail, Giant [12, 31]: 0 | Plant response rating, Lambsquarters [13, 30]: 100 | Lambsquarters plant response rating ([13]; 125 g ai/ha): 50 | Lambsquarters plant response rating ([13]; 500 g ai/ha): 70 | Plant response rating, Lambsquarters [13, 31]: 0 | Plant response rating, Morningglory [14, 30]: 20 | Morningglory plant response rating ([14]; 125 g ai/ha): 20 | Morningglory plant response rating ([14]; 500 g ai/ha): 40 | Plant response rating, Morningglory [14, 31]: 0 | Plant response rating, Pigweed [15, 30]: 100 | Pigweed plant response rating ([15]; 125 g ai/ha): 70 | Pigweed plant response rating ([15]; 500 g ai/ha): 90 | Plant response rating, Pigweed [15, 31]: 70 | Plant response rating, Rice [16, 30]: 40 | Plant response rating, Rice [16, 31]: 0 | Plant response rating, Velvetleaf [17, 30]: 10 | Velvetleaf plant response rating ([17]; 125 g ai/ha): 20 | Velvetleaf plant response rating ([17]; 500 g ai/ha): 60 | Plant response rating, Velvetleaf [17, 31]: 0 | Blackgrass plant response rating ([18]; 125 g ai/ha): 0 | Blackgrass plant response rating ([18]; 500 g ai/ha): 10 | Wheat plant response rating [19]: 10 | Oat, Wild plant response rating ([20]; 125 g ai/ha): 20 | Oat, Wild plant response rating ([20]; 500 g ai/ha): 20 | Rice plant response rating [21]: 40 | Sedge, Umbrella plant response rating [22]: 50 | Ducksalad plant response rating [23]: 20 | Barnyardgrass plant response rating [24]: 70
